From paper PMC4286326 (Journal of the American Chemical Society, 2014)
Where two headings read alike, the source gives them in different places.

How the values were obtained:
[1] = system: WT M2-expressing A/Udorn/72; test: microbe, parasite or virus in culture; type: cell-based; details: Influenza A virus, MDCK, read-out: A/Udorn/72 (S31) EC50
in vitro = details: dog
WT M2 (A/M2) = WT M2 (A/M2) (Influenza A virus, UniProt P0DOF5); test: biochemical
Sequence of WT M2 (A/M2) (P0DOF5 whole entry, looked up): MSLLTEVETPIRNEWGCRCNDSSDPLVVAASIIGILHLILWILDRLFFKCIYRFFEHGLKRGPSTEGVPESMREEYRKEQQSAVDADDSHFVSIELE

Row | SMILES | EC50 [1] | CC50 (in vitro) | inhibition at 100 µM (WT M2 (A/M2); read-out: % WT inhibition) | inhibition at 100 µM (WT M2 (A/M2); read-out: % WT(S31) inhibition)
1 | Brc1ccc(CNC23CC4CC(CC(C4)C2)C3)s1 [Compound 11, N-[(5-bromothiophen-2-yl)methyl]adamantan-1-amine] | 4.6 µM | 123 µM | 77% | 77%
2 | NC12CC3CC(CC(C3)C1)C2 [Compound 1, amantadine, reference compound] | 0.3 µM | > 300 µM |  | 
